The nature of data set [1]: Liver microsomal stability assay, human. The note with it: liver microsomes. (In general: Liver microsomes are vesicles of endoplasmic reticulum, rich in cytochrome P450 enzymes.)
Procedure: (§7) The compounds to be tested were co-incubated with liver microsomes of different species with or without the addition of NADPH. The final concentration of the test compounds in the test system was 1 µM, the final concentration of NADPH was 1 mM, and the final concentration of liver microsomes was 0.5 mg/mL.
The test system of a further data set is HCT116-MTAPdel. The experiment in a line: 2D antiproliferative assay (CTG cell viability), MTAP-deficient cells. The format is cell-based. The note with it: for IC50: Homo sapiens, HCT-116, HCT116 MTAP-deficient cells, 7-10 days, CTG, read-out: HCT116-MTAPdel/IC50/nM; for HCT116WT IMTAPdel selectivity: ratio IC50 wild type / MTAPdel, antiproliferation. On the procedure: (§1) HCT116 wild-type and MTAP-deficient cells were cultured in McCoy's 5A medium containing 10% FBS and 1% penicillin-streptomycin, and cultured in a 37°C, 5% CO2 constant temperature incubator. 40 µL of cell suspension was introduced into each well of a 384-well microplate. 40 nL of different concentrations of test compounds were added to each well using an Echo, before culturing in a 37°C, 5% CO2 constant temperature incubator for 7-10 days. 40 µL of CTG solution (Promega, Cat No. G7573) was added to each well and incubated in a 37°C, 5% CO2 constant temperature incubator for 30 minutes in the dark.

The next data set in a line: in vitro. The note with it: dog, MDCK-MDR1, pH 7.4. On the procedure:
(§2) The membrane permeability of the molecules of the present invention was evaluated to predict their permeability to the brain.
(§3) The specific procedure was: 1. MDCK-MDR1 cells were pre-cultured at a density of 1.56*10^6 cells/mL in a 96-well plate at 37°C for 7 days. 2. The MDCKII-MDR1 plate was taken out of the incubator, rinsed twice with pre-warmed HBSS (10 mM HEPES, pH 7.4), and then incubated at 37°C for 30 minutes. 3. The stock solution of the compound to be tested was diluted with DMSO to obtain a 0.2 mM solution, and then diluted with HBSS (10 mM HEPES, pH 7.4) to obtain a 1 µM working solution. A blank control group was also diluted with DMSO to obtain a 0.2 mM solution, and then diluted with HBSS (10 mM HEPES, pH 7.4) to obtain a 1 µM working solution. The final concentration of DMSO in the culture system was 0.5%. 4. The transport rate of the drug in the apical to basolateral direction was determined: 125 µL of the 1 µM test compound solution was added to a Transwell insert (top compartment), before immediately transferring a 50 µL sample (D0 sample) from the top comparment to a new 96-well plate. The receiving plate wells (basolateral compartment) were filled with 235 µL HBSS (10 mM HEPES, pH 7.4) and incubated at 37°C for 2 hours. 5. Upon completion of the incubation, 50 µL samples were transferred from the donor and acceptor sides to the wells of a new 96-well plate, before adding 4 volumes of cold acetonitrile containing an appropriate internal standard (IS). Prior to LC-MS/MS analysis, 100 µL of the supernatant was taken and mixed with an appropriate volume of ultrapure water. Papp = (VA×[drug]acceptor)/(Area×Time×[drug]initial,donor) [formula] where VA is the volume of the receptor pores (unit:mL), Area is the surface area of the membrane (0.143 cm^2 for a Transwell-96 well permeable support), and time is the total transport time in seconds. Efflux Ratio = Papp(B−A) /Papp(A−B) [formula]

Another data set relates to MDR1 (P-gp). The experiment in a line: in vitro. The note with it: dog, MDCK-MDR1, pH 7.4. On the procedure: as §2, §3
In the next data set the test system is HCT116-MTAPwt. The experiment in a line: 2D antiproliferative assay (CTG cell viability), wild-type cells. In kind it is cell-based. The note with it: Homo sapiens, HCT-116, 7-10 days. As for the experimental part:
as §1

Another data set concerns SDMA/HCT116-MTAPwt. The experiment in a line: In-cell arginine symmetric dimethylation inhibition (In-cell western, ICW), wild-type cells. The format is cell-based. The note with it: Homo sapiens, HCT-116, 96 hours. As for the experimental part: (§4) 60 nL of different concentrations of compounds were added to each well using an Echo, and incubated at 37°C, 5% CO2 for 96 hours.
(§5) Next, 50 µL of 4% paraformaldehyde solution was added to each well and incubated at room temperature for 20 minutes to fix the cells. The solution in the wells was removed, and each well was rinsed four times with PBS solution containing 0.1% Tween 20 (PBST). To each well was then added 30 µL of ice-cold methanol. After standing at -20°C for 10 minutes, the methanol was removed and the wells washed four times with PBST. 30 µL of Odyssey blocking solution containing 0.5% Tween 20 was added to each well and shaken for 2 hours at room temperature. The blocking solution was removed and 30 µL of primary antibody (Symmetric Di-Methyl Arginine Motif [sdma-RG] MultiMab™ Rabbit mAb mix) diluted at 1:500 in Odyssey blocking solution containing 0.5% Tween 20 was added to each well. The plates were incubated overnight at 4°C, before removing the primary antibody and rinsing each well four times with PBST, 5 minutes per rinse. Secondary antibody (goat anti-rabbit IRDye 800CW, 1:800) and nuclear stain (DRAQ5, 1:10000) diluted in Odyssey blocking solution containing 0.5% Tween 20 were then added to each well before incubating at room temperature for 2 hours in the dark. The secondary antibody was removed, and the wells rinsed four times with PBST.
(§6) The sdme-RG and DRAQ5 signals were scanned at 800 nm and 700 nm respectively on a Li-Cor Odyssey instrument and the signal values recorded. The sdme-RG/DRAQ5 ratio was used to calculate the percentage inhibition of arginine symmetric dimethylation (SDMA), and the IC50 value calculated using GraphPad Prism software.

The nature of data set [2]: Membrane permeability: Caco-2 assay. In kind it is in vitro ADME. The note with it: human. On the procedure: The membrane permeability of the molecules of the invention was evaluated. […] Efflux Ratio = Papp(B−A) /Papp(A−B) [formula]
Background: Caco-2 monolayers are a common model of the intestinal barrier.

Data set [3] is described as follows: Liver microsomal stability assay, mouse. The format is in vitro ADME. The note with it: mouse liver microsomes 0.5 mg/mL, compound 1 µM, NADPH 1 mM, 60 minute.
Procedure: as §7
In a further data set the test system is SDMA/HCT116-MTAPdel. Briefly: In-cell arginine symmetric dimethylation inhibition (In-cell western, ICW), MTAP-deficient cells. In kind it is cell-based. The note with it: for IC50: Homo sapiens, HCT-116, HCT116 MTAP-deficient cells, 96 hours; for Selectivity wt/MTAPdel: ratio SDMA IC50 wt / MTAPdel. On the procedure:
as §4, §5, §6

Data set [4] in a line: Mouse pharmacokinetics testing. In kind it is in vivo, CD1 female mice. The note with it: female, CD1, mouse, in vivo. On the procedure: CD1 female mice were used as test animals and administered the compounds orally/intravenously (oral dosage was 10 mg/kg and intravenous dosage was 2 mg/kg). Test protocol: Each oral and intravenous group consisted of three mice. […] Plasma drug concentrations after oral and intravenous administration were determined by LC/MS/MS, and the collected data analyzed using AB Sciex QTRAP 6500 software.

Data set [5] deals with HUP-T4 (MTAPdel) human pancreatic cancer tumor cells. Briefly: In vivo efficacy, HUP-T4 subcutaneous xenograft. The note with it: BID, oral; for TGI: 28 consecutive days; for Tumor volume (mm^3)-D1: D1 (baseline at start of dosing). The arrangement: species or system BALB/c nude mice. As for the experimental part:
HUP-T4 (MTAPdel) human pancreatic cancer tumor cells (MEM medium with 10% fetal bovine serum) were cultured and inoculated into 6-8 week old female BALB/c nude mice (weighing about 25 g), with all mice subcutaneously inoculated. The mice were cultured in an SPF-grade environment, and all mice had free access to commercially certified standard diets. Test compounds were orally administered daily once the average tumor volume of the mice grew to about 176 mm^3. The control group received blank solvent (0.1% TW80+0.5% methylcellulose+99.4% saline), while the test group received a drug dose of 75 mg/kg or 50 mg/kg, twice a day. Tumor volume was measured in two dimensions with calipers three times a week, and the animals were weighed every day. […] Voume calculation formula: V=1/2a*b^2, where a denotes the long diameter of the tumor, and b the short diameter of the tumor.

[6] abbreviates: Caco-2, apical pH 6.5, basolateral pH 7.4.

Usually CLint scaled stands for the rate of metabolic loss divided by the concentration. The low end stands for greater metabolic stability, the high end for faster metabolism. By Papp A→B is commonly meant the apparent permeability from the apical to the basolateral side of a cell layer. A lower Papp A→B goes with slow passage. What is called Papp B→A is how fast a substance crosses the layer from the basolateral side. By efflux ratio is commonly meant a quotient of directional permeabilities that is used to spot active efflux. Turning to `CCN(C(=O)C(=O)Nc1cnc(N)c2c1cnn2C)[C@@H]1COCc2nc(C(F)(F)F)ccc21` [Compound P28], in data set [1], the CLint scaled at 1 µM was found to be 4.8 mL/min/kg. In addition, in the data set with HCT116-MTAPdel, the IC50 is 10 nM and the “HCT116WT IMTAPdel selectivity” value came to 119. In the data set “in vitro”, this molecule came in with a Papp A→B of 10.7 ×10⁻⁶ cm/s and an apparent permeability from basolateral to apical (Papp B→A) of 34 ×10⁻⁶ cm/s. Further, the efflux ratio in the data set with MDR1 (P-gp) turned out to be 3.2. The molecule also gave an IC50 with HCT116-MTAPwt of 1190 nM.
`CN(C(=O)C(=O)Nc1cnc(N)c2c1cnn2C)C1COc2cc(S(=O)(=O)C(F)(F)F)ccc21` (centres unmarked) [Compound P33]: in the data set with HCT116-MTAPdel, the IC50 was 9 nM and the “HCT116WT IMTAPdel selectivity” value turned out to be 162. In “in vitro”, the Papp A→B came to 6.86 ×10⁻⁶ cm/s and the Papp B→A was 28.8 ×10⁻⁶ cm/s. Also, the efflux ratio in the data set with MDR1 (P-gp) stood at 4.2. In the data set on HCT116-MTAPwt, the IC50 stood at 1460 nM.
By AUC(0-t) is commonly meant the area under the concentration-time curve up to a stated or last time point. As usually defined, the clearance is the volume of plasma or blood freed of the substance per unit of time. Broadly, the half-life is the time in which the quantity being followed falls by half. A word on the Cmax: it is the peak of the concentration-time curve. A word on the Tmax: it is the time at which the peak concentration occurs. Molecule `CN(C(=O)C(=O)Nc1cnc(N)c2c1cnn2C)[C@@H]1COCc2nc(C(F)(F)F)ccc21` [Compound P9a] came in with an intrinsic metabolic clearance (CLint scaled) at 1 µM in data set [1] of 2.1 mL/min/kg. Also, in the data set with HCT116-MTAPdel, the IC50 turned out to be 12 nM and the “HCT116WT IMTAPdel selectivity” value is listed as 333. The molecule also yielded an IC50 with SDMA/HCT116-MTAPwt of 2450 nM. Further, the efflux ratio in data set [2] (Caco-2, Efflux Ratio = Papp(B-A)/Papp(A-B)) was determined as 2.9. In [2] (setting [6]), this molecule displayed a Papp A→B of 8.65 ×10⁻⁶ cm/s and a Papp B→A of 25.1 ×10⁻⁶ cm/s. This molecule had an IC50 in the data set with HCT116-MTAPwt of 4000 nM. In addition, the intrinsic metabolic clearance (CLint scaled) at 1 µM in [3] was determined as 10 mL/min/kg. In the data set with SDMA/HCT116-MTAPdel, the IC50 was found to be 0.9 nM and the “Selectivity wt/MTAPdel” value was found to be 2722. The same molecule showed a F in [4] of 77%. In [4] (iv, 2 mg/kg), this molecule had an AUC(0-t) of 3990 ng·h/mL, a C0 of 5650 ng/mL, a clearance of 8.3 mL/min/kg and a half-life of 1.2 h. Also, in data set [4] (po, 10 mg/kg), the AUC(0-t) was 15400 ng·h/mL, the Cmax amounted to 10800 ng/mL, the Tmax came to 0.25 h and the half-life was 1.1 h.
Consider `[2H]C([2H])([2H])N(C(=O)C(=O)Nc1cnc(N)c2c1cnn2C)[C@@H]1COc2cc(C(F)(F)F)ccc21` [Compound P22], for which the CLint scaled at 1 µM in [1] is 7.8 mL/min/kg. For the same molecule, in data set [5] (50 mg/kg), the TGI stood at 102%, the “Tumor volume (mm^3)-D1” value is given as 176 mm^3 and the “Tumor volume (mm^3)-D28” value came to 158 mm^3. For the same molecule, in data set [5] (75 mg/kg), the TGI came out at 104%, the “Tumor volume (mm^3)-D1” value is 176 mm^3 and the “Tumor volume (mm^3)-D28” value was determined as 146 mm^3. For the same molecule, in the data set on HCT116-MTAPdel, the IC50 is 6 nM and the “HCT116WT IMTAPdel selectivity” value came to 160. Besides, the IC50 in the data set on SDMA/HCT116-MTAPwt is 298 nM. In the data set “in vitro”, this molecule gave a Papp A→B of 14.9 ×10⁻⁶ cm/s and a Papp B→A of 20.6 ×10⁻⁶ cm/s. For the same molecule, the efflux ratio in the data set on MDR1 (P-gp) was 1.38. This molecule had an IC50 in the data set with HCT116-MTAPwt of 961 nM. This molecule returned a CLint scaled at 1 µM in data set [3] of 46.2 mL/min/kg. Further, in the data set with SDMA/HCT116-MTAPdel, the IC50 was determined as 0.2 nM and the “Selectivity wt/MTAPdel” value was 1490. For the same molecule, the F in data set [4] is listed as 62%. In [4] (iv, 2 mg/kg), this molecule showed an exposure AUC(0-t) of 896 ng·h/mL, a C0 of 1140 ng/mL, a clearance of 35.5 mL/min/kg and a half-life of 2.6 h. In data set [4] (po, 10 mg/kg), the area under the curve AUC(0-t) stood at 2660 ng·h/mL, the maximum concentration (Cmax) is 1180 ng/mL, the Tmax worked out at 0.25 h and the half-life is 2.2 h.

Values taken from patent EP4653435A1, “PRMT5-MTA INHIBITOR” (Suzhou Puhe Biopharma Co., Ltd., priority 2023, dated 2024).
